{"source": "patent US8455510B2", "key": {"[1]": {"test": "Immunosuppressive activity assay: cytotoxicity", "assay_type": "cell-based"}, "[2]": {"tested_on": "human prostate cancer PC-3 xenograft", "test": "PC-3 xenograft on nude mice", "settings": "1-5 × 3.5 w; for TV (mm3) d0: baseline"}, "FKBP-12 protein": {"molecular_target": "T1, FKBP-12 protein (Homo sapiens, UniProt P62942)", "T1 construct": "purchased sigma Co", "T1 sequence (P62942 whole entry, species assumed)": "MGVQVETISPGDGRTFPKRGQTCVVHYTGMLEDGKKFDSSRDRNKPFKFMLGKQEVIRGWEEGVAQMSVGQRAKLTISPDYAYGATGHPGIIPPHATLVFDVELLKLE", "test": "SPR (surface plasma resonance) binding with FKBP-12", "procedure": "(1) FKBP-12 protein was purchased from sigma Co.\n(2) HBS-EP buffer solution (10 mM Hepes, 150 mM NaCl, 3.4 mM EDTA, 0.005% (v/v) surfactant P20, pH 7.4)\n(3) Activating reagents EDC and NHS, and blocking reagents Ethanolamine, etc., were purchased from BIACORE AB Co. (Uppsala, Sweden).\n(4) BIAcore 3000 and CM5 chip were purchased from BIACORE AB Co. (Uppsala, Sweden).\n(2) […] was coupled to the FC2 channel on CM5 chip by using the Wizard for amino-coupling in Biacore 3000 controlling soft. 3.3 g/L of FKBP-12 protein was diluted with 10 mM NaAC (pH 4.6) to 66 μg/ml. The surface of the chip was washed by injecting a mixture of 0.1M1-(3-dimethylaminopropyl)-3-ethylcarbodiimide hydrochloride (EDCI) and 0.1M N-hydroxysuccinimide (NHS) (1:1) at a flow rate of 20 μL/min for 7 min. After that, the protein solution was injected, and then a 1M cholamine (pH 8.5) solution was fed for 7 min to block the activated surface of the chip. Preliminary screening and pharmacokinetic tests on the compounds\nThe binding abilities of small molecular compounds with FKBP-12 protein were evaluated by SPR (surface plasma resonance). The stock solution of the compound was 10 mM, and was diluted by HBS-EP buffer solution at given ratios. Pharmacokinetic tests were carried out by the Wizard for kinetic analysis in Biacore 3000 controlling soft. The resulted data were fitted by 1:1 Langmuir binding model or stability model in Biacore 3000 analytical soft to obtain the exact kinetic and thermodynamic constants."}, "[3]": {"tested_on": "phosphorylation levels of p70S6K and 4E-BP1", "test": "Western blotting of mTOR downstream substrate phosphorylation in tumor cells", "assay_type": "cell-based, human", "settings": "Rh30, PC-3, MCF-7 and CAKI-1 cells, 1 hour treatment, IGF stimulation, FIG. 2", "procedure": "Cells were inoculated on a 12-well plate with given densities and allowed to attach overnight. Then the medium was changed to a serum-free one. After starved for 24 hours, the cells were treated with the compound at corresponding concentrations for 1 hour, and then stimulated by IGF for 10 min. The cells were collected, and the phosphorylation levels of p70S6K and 4E-BP1 in the cells were measured by using Western blotting."}, "MCF-7 cells": {"tested_on": "MCF-7 cells", "test": "SRB growth inhibition, MCF-7 cells", "assay_type": "cell-based, human", "settings": "SRB method, 72 hours, different concentrations, FIG. 1", "procedure": "(§1) After Rh30 cells were treated by the compound at different concentrations, the cell survival rate was detected by SRB method.\n(§2) The above various kinds of tumor cells in logarithmic growth phase were inoculated on a 96-well plate with 90 μl per well, and allowed to attach for 24 hours, followed by the addition of the compound with 10 μl per well. For each concentration, the test was carried out in triplicate wells, and included a control well containing the aqueous medium of normal saline at the corresponding concentration and a blank well without cells for zeroing. The tumor cells were cultured for 72 hours at 37° C. and 5% CO2, and then the culture medium was removed. The cells were fixed with cold 10% TCA (trichloroacetic acid) at 4° C. for 1 hour, then washed with distilled water for 5 times, and dried at room temperature, followed by addition of a SRB (Sigma) solution (4 mg/ml) in 1% glacial acetic acid at 100 μl per well. The cells were stained at room temperature for 15 min, and the supernatant was removed. The plate was washed by 1% acetic acid for 5 times and dried at room temperature. Finally, Tris-solution was added at 150 μl per well, and the A value was measured at a wavelength of 520 nm on an ELISA Reader."}, "PC-3 cells": {"tested_on": "PC-3 cells", "test": "SRB growth inhibition, PC-3 cells", "assay_type": "cell-based, human", "settings": "SRB method, 72 hours, different concentrations, FIG. 1", "procedure": "as §1, §2"}, "[4]": {"tested_on": "human rhabdomyosarcoma RH-30 xenograft", "test": "RH-30 xenograft on nude mice", "settings": "for TV (mm^3) d0: baseline", "from_the_text": "Animals: BALB/cA nude mice, male, 40-45 days old, body weight: 21±2 g, provided by Shanghai Institute of Materia Medica, Chinese Academy of Sciences. License No.: SCXK (Shanghai) 2004-0002. Animal number in each group: 6 in negative control group, and 6 in administration group.\nThe amount of inoculated cells was 5×10^6. After the xenograft was formed by inoculation, it was used after passed for 3 generations in nude mice."}, "HL-60 cells": {"tested_on": "HL-60 cells", "test": "SRB growth inhibition, HL-60 cells", "assay_type": "cell-based, human", "settings": "SRB method, 72 hours, different concentrations, FIG. 1", "procedure": "as §1, §2"}, "Rh30 cells": {"tested_on": "Rh30 cells", "test": "SRB growth inhibition, Rh30 cells", "assay_type": "cell-based, human", "settings": "SRB method, 72 hours, different concentrations, FIG. 1", "procedure": "as §1, §2"}, "CAKI-1 cells": {"tested_on": "CAKI-1 cells", "test": "SRB growth inhibition, CAKI-1 cells", "assay_type": "cell-based, human", "settings": "SRB method, 72 hours, different concentrations, FIG. 1", "procedure": "as §1, §2"}, "T Cells": {"tested_on": "T Cells", "test": "Immunosuppressive activity assay: T cells inhibitory activity", "assay_type": "cell-based", "settings": "T-cell; Table 10"}, "[5]": {"settings": "Table 2, 5 mg/kg p.o, 1-5 × 3 w"}, "[6]": {"settings": "Table 2, 10 mg/kg p.o, 1-5 × 3 w"}}, "note": "Entries after “also recorded” stand apart in the source; their conditions may differ. Where two headings read alike, the source gives them in different places.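 For TV (mm^3) d0 in this document: male BALB/cA nude mice with subcutaneous RH-30 tumors, oral dosing versus solvent-fed controls, caliper tumor volume, RTV relative to grouping day, T/C as treated RTV over control RTV ×100.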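 For TV (mm^3) d14 in this document: male BALB/cA nude mice with subcutaneous RH-30 tumors, oral dosing versus solvent-fed controls, caliper tumor volume, RTV relative to grouping day, T/C as treated RTV over control RTV ×100.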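 For TV (mm^3) d21 in this document: male BALB/cA nude mice with subcutaneous RH-30 tumors, oral dosing versus solvent-fed controls, caliper tumor volume, RTV relative to grouping day, T/C as treated RTV over control RTV ×100.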"}
{"smiles": "CO[C@H]1CC2CC[C@@H](C)[C@@](O)(O2)C(=O)C(=O)N2CCCCC2C(=O)O[C@H]([C@H](C)C[C@@H]2CC[C@@H](OC(=O)OCC(O)CO)[C@H](OC)C2)CC(=O)[C@H](C)/C=C(\\C)[C@@H](OC(=O)OCC(O)CO)[C@@H](OC)C(=O)[C@H](C)C[C@H](C)/C=C/C=C/C=C/1C", "note": "(stereo partly shown) [Y50]", "values": [{"measurement": "Safety Index CC50/IC50", "setting": "[1]; Table 10", "value": ">10.9"}, {"measurement": "CC50", "setting": "[1]; Table 10, value beyond the >100 μM bound, read-out: Cytotoxicity CC50, value in brackets", "value": 7590, "unit": "µM"}, {"measurement": "CC50", "setting": "[1]; Table 10, read-out: Cytotoxicity CC50", "value": "> 100", "unit": "µM"}, {"measurement": "Body Weight (g) end", "setting": "[2]; Table 3, 2.5 mg/kg p.o", "value": 17.7, "unit": "g"}, {"measurement": "Body Weight (g) start", "setting": "[2]; Table 3, 2.5 mg/kg p.o", "value": 19.7, "unit": "g"}, {"measurement": "RTV", "setting": "[2]; Table 3, 2.5 mg/kg p.o", "value": "2.6 ± 1.1"}, {"measurement": "T/C (%)", "setting": "[2]; Table 3, 2.5 mg/kg p.o", "value": 40.2, "unit": "%"}, {"measurement": "TV (mm3) d21", "setting": "[2]; Table 3, 2.5 mg/kg p.o", "value": "273 ± 163", "unit": "mm3"}, {"measurement": "TV (mm3) d0", "setting": "[2]; Table 3, 2.5 mg/kg p.o", "value": "103 ± 35", "unit": "mm3"}, {"measurement": "Body Weight (g) end", "setting": "[2]; Table 3, 5 mg/kg p.o", "value": 22.3, "unit": "g"}, {"measurement": "Body Weight (g) start", "setting": "[2]; Table 3, 5 mg/kg p.o", "value": 22.7, "unit": "g"}, {"measurement": "RTV", "setting": "[2]; Table 3, 5 mg/kg p.o", "value": "0.65 ± 0.4"}, {"measurement": "T/C (%)", "setting": "[2]; Table 3, 5 mg/kg p.o", "value": 10.0, "unit": "%"}, {"measurement": "TV (mm3) d21", "setting": "[2]; Table 3, 5 mg/kg p.o", "value": "70 ± 59", "unit": "mm3"}, {"measurement": "TV (mm3) d0", "setting": "[2]; Table 3, 5 mg/kg p.o", "value": "98 ± 42", "unit": "mm3"}, {"measurement": "binding with FKBP12", "setting": "FKBP-12 protein", "value": "concentration-dependently bind"}, {"measurement": "Kd", "setting": "FKBP-12 protein; FKBP12", "value": 0.00026, "unit": "µM"}, {"measurement": "koff", "setting": "FKBP-12 protein; FKBP12", "value": "0.14 × 10^−3 S^−1"}, {"measurement": "kon", "setting": "FKBP-12 protein; FKBP12", "value": "5.24 × 10^5 M^−1S^−1"}, {"measurement": "R^U (Response Unit) compared with rapamycin", "setting": "FKBP-12 protein; at the same concentration", "value": "higher"}, {"measurement": "concentration to reach the saturation state for the binding with FKBP12", "setting": "FKBP-12 protein; compared with rapamycin", "value": "lower than that for rapamycin"}, {"measurement": "inhibition of mTOR-catalyzed phosphorylation of p70S6K and 4E-BP1", "setting": "[3]", "value": "concentration-dependently suppress; also recorded: comparable inhibitory effects to those of rapamycin"}, {"measurement": "inhibitory effects on the growth of MCF-7 cells", "setting": "MCF-7 cells", "value": "comparable to those of rapamycin"}, {"measurement": "inhibitory effects on the growth of PC-3 cells", "setting": "PC-3 cells", "value": "comparable to those of rapamycin"}, {"measurement": "Body Weight (g) end", "setting": "[4]; [5]", "value": 25.8, "unit": "g"}, {"measurement": "Body Weight (g) start", "setting": "[4]; [5]", "value": 22.2, "unit": "g"}, {"measurement": "RTV", "setting": "[4]; [5]", "value": "2.9 ± 0.5"}, {"measurement": "T/C (%)", "setting": "[4]; [5]", "value": 32.5, "unit": "%"}, {"measurement": "TV (mm^3) d21", "setting": "[4]; [5]", "value": "380 ± 146", "unit": "mm^3"}, {"measurement": "TV (mm^3) d0", "setting": "[4]; [5]", "value": "132 ± 47", "unit": "mm^3"}, {"measurement": "Body Weight (g) end", "setting": "[4]; [6]", "value": 26.0, "unit": "g"}, {"measurement": "Body Weight (g) start", "setting": "[4]; [6]", "value": 23.0, "unit": "g"}, {"measurement": "RTV", "setting": "[4]; [6]", "value": "3.5 ± 1.1"}, {"measurement": "T/C (%)", "setting": "[4]; [6]", "value": 32.9, "unit": "%"}, {"measurement": "TV (mm^3) d21", "setting": "[4]; [6]", "value": "415 ± 71", "unit": "mm^3"}, {"measurement": "TV (mm^3) d0", "setting": "[4]; [6]", "value": "130 ± 50", "unit": "mm^3"}, {"measurement": "Body Weight (g) end", "setting": "[4]; Table 4, 5 mg/kg po, 1-5/2 w", "value": 21.5, "unit": "g"}, {"measurement": "Body Weight (g) start", "setting": "[4]; Table 4, 5 mg/kg po, 1-5/2 w", "value": 20.0, "unit": "g"}, {"measurement": "RTV", "setting": "[4]; Table 4, 5 mg/kg po, 1-5/2 w", "value": "2.0 ± 0.5"}, {"measurement": "T/C (%)", "setting": "[4]; Table 4, 5 mg/kg po, 1-5/2 w", "value": 46.6, "unit": "%"}, {"measurement": "TV (mm^3) d14", "setting": "[4]; Table 4, 5 mg/kg po, 1-5/2 w", "value": "323 ± 124", "unit": "mm^3"}, {"measurement": "TV (mm^3) d0", "setting": "[4]; Table 4, 5 mg/kg po, 1-5/2 w", "value": "160 ± 47", "unit": "mm^3"}, {"measurement": "inhibitory effects on the growth of HL-60 cells", "setting": "HL-60 cells", "value": "comparable to those of rapamycin"}, {"measurement": "inhibitory effects on the growth of Rh30 cells", "setting": "Rh30 cells", "value": "comparable to those of rapamycin"}, {"measurement": "inhibitory effects on the growth of CAKI-1 cells", "setting": "CAKI-1 cells", "value": "comparable to those of rapamycin"}, {"measurement": "IC50", "setting": "T Cells", "value": 9.1, "unit": "µM"}]}
